Columns and labels:
A549 [1] = experiment: In vitro rate of inhibition of A-549 tumor cell growth at 10E-4 mol/L; assay type: functional, Homo sapiens; settings: at 100 µM
A549 [2] = experiment: In vitro rate of inhibition of A-549 tumor cell growth at 10E-5 mol/L; assay type: functional, Homo sapiens; settings: at 10 µM
A549 [3] = experiment: In vitro rate of inhibition of A-549 tumor cell growth at 10E-7 mol/L; assay type: functional, Homo sapiens; settings: at 0.1 µM
A549 [4] = experiment: In vitro rate of inhibition of A-549 tumor cell growth at 10E-8 mol/L; assay type: functional, Homo sapiens; settings: at 0.01 µM
P388 [5] = experiment: In vitro rate of inhibition of P388 tumor cell growth at 10E-5 mol/L; assay type: functional, Mus musculus; settings: at 10 µM
P388 [6] = experiment: In vitro rate of inhibition of P388 tumor cell growth at 10E-6 mol/L; assay type: functional, Mus musculus; settings: at 1 µM
P388 [7] = experiment: In vitro rate of inhibition of P388 tumor cell growth at 10E-7 mol/L; assay type: functional, Mus musculus; settings: at 0.1 µM
P388 [8] = experiment: In vitro rate of inhibition of P388 tumor cell growth at 10E-8 mol/L; assay type: functional, Mus musculus; settings: at 0.01 µM
A549 [9] = experiment: In vitro rate of inhibition of A-549 tumor cell growth at 10E-6 mol/L; assay type: functional, Homo sapiens; settings: at 1 µM
P388 [10] = experiment: In vitro rate of inhibition of P388 tumor cell growth at 10E-4 mol/L; assay type: functional, Mus musculus; settings: at 100 µM

Row | SMILES | Rate of inhibition (A549 [1]) [%] | Rate of inhibition (A549 [2]) [%] | Rate of inhibition (A549 [3]) [%] | Rate of inhibition (A549 [4]) [%] | Rate of inhibition (P388 [5]) [%] | Rate of inhibition (P388 [6]) [%] | Rate of inhibition (P388 [7]) [%] | Rate of inhibition (P388 [8]) [%] | Rate of inhibition (A549 [9]) [%] | Rate of inhibition (P388 [10]) [%]
1 | CC1=NN(C(=O)Oc2ccccc2)C(C)N=N1 (configuration not stated) | 32.1 | 0 | 0 | 0 | 27.9 | 13.6 | 1.2 | 0 | 0 | 85.3
2 | CCCOC(=O)N1N=C(C)N=NC1C (configuration not stated) | 16.7 | 11 | 0 | 0 | 13.5 | 9 | 8.7 | 5.2 | 0 | 34.8
3 | Clc1cccc(-c2nnc(-c3cccc(Cl)c3)nn2)c1 | 0 | 0 | 0 | 0 | 26.5 | 33.2 | 13.5 | 4.3 | 0 | 40.3
4 | CC1=NN(C(=O)Nc2ccccc2)C(C)=NN1C(=O)Nc1ccccc1 | 76.5 | 77.9 | 60.3 | 50 | 90.6 | 90.6 | 87.5 | 81.3 | 79.4 | 89.1
5 | COc1ccc(NC(=O)N2N=C(C)N(C(=O)Nc3ccc(OC)cc3)N=C2C)cc1 | 24.2 | 0.9 | 0 | 0 | 36.5 | 14.3 | 6.3 | 0 | 0 | 73
6 | COc1cccc(NC(=O)N2N=C(C)N(C(=O)Nc3cccc(OC)c3)N=C2C)c1 | 87.7 | 86.2 | 89.2 | 86.2 | 93.8 | 93.8 | 95.2 | 92.2 | 84.6 | 95.3
7 | COC(=O)N1N=C(C)N=NC1C (configuration not stated) | 75.9 | 19.6 | 0 | 0 | 7.8 | 0 | 11.3 | 5.7 | 0 | 60.5
8 | Cc1cccnc1-c1nnc(-c2ncccc2C)nn1 | 0 | 0 |  |  | 3.6 |  |  |  |  | 2.6
9 | COc1ccccc1C(=O)N1N=C(c2ccccc2)NN=C1c1ccccc1 | 90.9 | 72.6 | 0 | 0 | 25.2 | 7.4 | 0.8 | 0 | 4.7 | 64.5
10 | CC1=NN(C(=O)Nc2cc(C)cc(C)c2)C(C)=NN1C(=O)Nc1cc(C)cc(C)c1 | 86.4 | 73.9 | 0 | 0 | 91.7 | 31.5 | 0 | 0 | 37.5 | 90.7
11 | c1ccc(C2=NNC(c3ccccc3)=NN2)cc1 | 87.6 | 69 | 0 |  | 67.2 | 5.4 | 10.2 |  | 0 | 55.8

Reference: ChEMBL document CHEMBL1147590, “Synthesis and antitumor activity of s-tetrazine derivatives” (Bioorg Med Chem Lett, 2004)
